The values below come from publication doi:10.1101/2024.08.13.607785v1 (biorxiv, 2024).

This assay deals with T1, Discoidin domain-containing receptor 2 ; DDR2 ; Q16832 (Homo sapiens, UniProt Q16832).
T1 sequence (Q16832 1-855): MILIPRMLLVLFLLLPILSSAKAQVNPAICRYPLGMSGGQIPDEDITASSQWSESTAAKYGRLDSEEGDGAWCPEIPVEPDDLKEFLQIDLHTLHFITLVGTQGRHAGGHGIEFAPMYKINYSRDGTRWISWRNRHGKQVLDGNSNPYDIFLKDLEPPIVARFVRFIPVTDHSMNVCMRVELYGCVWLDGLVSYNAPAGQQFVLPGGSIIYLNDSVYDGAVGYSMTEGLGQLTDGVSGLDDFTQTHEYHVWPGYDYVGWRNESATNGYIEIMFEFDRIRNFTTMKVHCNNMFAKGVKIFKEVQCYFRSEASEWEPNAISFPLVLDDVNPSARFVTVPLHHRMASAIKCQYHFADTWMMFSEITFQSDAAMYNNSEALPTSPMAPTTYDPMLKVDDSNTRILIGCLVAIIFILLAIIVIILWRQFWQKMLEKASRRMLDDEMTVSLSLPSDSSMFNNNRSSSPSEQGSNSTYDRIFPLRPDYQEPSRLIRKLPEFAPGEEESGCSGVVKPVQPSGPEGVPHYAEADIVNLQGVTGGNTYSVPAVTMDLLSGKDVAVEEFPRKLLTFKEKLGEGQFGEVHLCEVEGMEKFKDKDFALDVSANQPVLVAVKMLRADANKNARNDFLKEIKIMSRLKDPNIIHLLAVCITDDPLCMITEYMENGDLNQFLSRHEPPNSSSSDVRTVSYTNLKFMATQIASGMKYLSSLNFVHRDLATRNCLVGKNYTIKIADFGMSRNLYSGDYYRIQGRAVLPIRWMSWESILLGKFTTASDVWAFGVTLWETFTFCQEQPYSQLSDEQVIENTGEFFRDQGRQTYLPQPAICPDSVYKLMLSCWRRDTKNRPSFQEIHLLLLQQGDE
Also noted: species or system mixed lysate of K562, MV4-11, THP-1, NCI-H1155. Particulars: binder.

Each structure is given as a SMILES string.

Take `Cc1nc(Nc2ncc(C(=O)Nc3c(C)cccc3Cl)s2)cc(N2CCN(CCO)CC2)n1` [dasatinib]: the “DDA-MS / % Intensity (30 µM/DMSO)” value is reported as 10.23%.
